Assays:
MDA-MB-468 cells [1] = assay: Quantification of RNA from MDA-MB-468 cells isolated after 72 h sample storage; type: cell-based, human; settings: 72 hours at room temperature, GCK DNA as reference, two donors
Procedure: MDA-MB-468 cells were spiked into blood samples obtained from two healthy individuals at 14.4×10^6 cells/ml. From each donor four samples were prepared. […] Aliquots from these samples were processed immediately after set up, other aliquots were processed after storage at room temperature for 72 hours. MDA-MB-468 cells were isolated from blood by capturing with BreastSelectBeads from Adnagen Cat. No.: T1-508 with 1,000 μl aliquots of sample material according to the protocol recommended by the manufacturer.
The bead captured purified cells were resuspended in 1,000 μl PBS. With 200 μl aliquots RNA was isolated using the MagNA Pure LC DNA Isolation Kit—Large volume Cat No 03310515001 using the Program “DNA LV Blood_20_200” and an elution volume of 100 μl.
The RNA was transcribed into cDNA using Transcriptor First Strand cDNA Synthesis Kit Cat. No: 04897030001 in reactions of 70 μl volume, each reaction containing 12.5 μl of isolated nucleic acid. PCR was peformed with the with the LightCycler 480 Probes Master in a LightCycler 480 instrument in 20 μl reactions containing 5 μl of the cDNA samples. […]
To quantify the changes in expression level of the RNA target tested, the relative quantification method of Livak and Schmittgen was used (Livak K. J. and Schmittgen T. D., Methods 2001, 25(4) 402-408). […]

MDA-MB-468 cells [2] = assay: Isolation of viable cells after sample storage for 48 hours, Trypan blue exclusion; type: cell-based, human; settings: 48 hours at room temperature, two donors
Procedure: MDA-MB-468 cells were spiked into blood samples obtained from healthy individuals to result in a final concentration of 300,000 spiked cells/ml blood. The samples were processed either immediately or after storage at room temperature for 48 hours.
Immediately after sample set up and 48 hours later nucleated cells were enriched by erythrocyte lysis. […] The cells were sedimented by centrifugation at 200×g for 15 min.
From these samples the MDA-MB-468 cells were isolated using CD326 (EpCAM) Microparticles from Miltenyi (Cat No 130-061-101), MS columns and the MACS separator system (Milteny Cat. Nos. 130-042-201, 130-042-102) making use of the protocol recommended by the manufacturer.
The enriched cells were suspended in 300 μl of RPMI medium.
The viability of the cells was tested with the Trypan blue exclusion method. 10 μl of each sample was mixed with 10 μl of Trypan blue (Sigma-Aldrich T8154). The number of MDA-MB-468 cells excluding the dye was counted in a Neubauer chamber. The yield of viable cells was calculated using the cell number spiked into the blood samples as 100%.

MDA-MB-468 cells [3] = settings: blood stored 48 hours at room temperature; cell index for 101 hours
Procedure: MDA-MB-468 cells treated and isolated as described in Example 6 were seeded into the wells of an E-Plate 96-well device (Roche Applied Science, Cat. No. 06472451001, Roche Diagnostics GmbH Mannheim, Germany) for the Real-Time Cell Analyzer (RTCA) MP (xCELLigence system). 50 μl aliquots of cells were seeded into wells containing 50 μl of RPMI medium. Duplicates were used for analysis. The E-Plate was incubated over night at 37° C. in an incubator to allow attachment of MDA-MB-468 cells to the bottom of the E-Plate. In order to remove contaminating blood derived cells the medium was removed and cells attached to the culture plate were washed 3 times with PBS. 150 μl of fresh RPMI medium was added per well and the E-Plate transferred to the Real-Time Cell Analyzer. Cell index was measured once per hour for 101 hours.

MDA-MB-468 cells [4] = assay: Preservation of cellular proteins: anti-CK5/8 immunostaining of MDA-MB-468 cells spiked into blood; type: cell-based, human; settings: EDTA blood, 48 hours at room temperature; Sivelestat 10 μg/ml, Pefabloc SC 1 mM, SkQ1 100 nM, Mito Q 100 nM, glutathione 3 mM; versus EDTA without additive
Procedure: Preservation of Cellular Proteins Suspended cells of MDA-MB-468, a human breast cancer cell line were spiked into blood samples obtained from healthy individuals to result in 100,000 spiked cells per ml blood. The samples were processed either immediately or after storage at room temperature for 48 hours.
Nucleated cells were enriched by erythrocytes lysis. […] After centrifugation at 200×g for 15 min, the supernatant was removed and the pellet was resuspended in 250 μl of lysis buffer. […] The cells were sedimented by centrifugation at 200×g for 15 min.
For each sample a volume of 50 μl of the cell suspension was spotted on a glass slide and air-dried. The slides were fixed in ice cold acetone for 10 min, washed with PBS twice and immersed in labeling mixture containing anti-cytokeratine K5/K8-FITC labeled antibody diluted 1:50 in PBS (cytokeratine=CK). After an incubation for 30 min in the dark the supernatant was removed. DAPI-containing mounting medium was added, the spots covered with cover slips and after a further incubation for 20 min analyzed on a Zeiss Axio Observer Microscope. The total number of nucleated cells and the CK 5/8 positive cells were analyzed with the Assay Builder Software from Zeiss.
MDA-MB-468 cells were spiked into blood samples obtained from healthy individuals to result in a concentration of 100,000 spiked cells/ml blood. The samples were processed either immediately or after storage at room temperature for 48 hours. […] Sample 3 was additionally supplemented with the mitochondria targeted antioxidant SS-31 (1 μM), sample 4 with glutathione (0.75 mM). Nucleated cells were enriched by erythrocytes lysis and processed as described in Example 1.

| Compound | percentage of MDA-MB-468 cells detected by immunostaining with Anti-CK5/8 (FIG. 1) (MDA-MB-468 cells [4]) | further results |
| --- | --- | --- |
| O=C(O)CN(CCN(CC(=O)O)CC(=O)O)CC(=O)O [EDTA] |  | change of RNA levels of isolated MDA-MB-468 cells (FIG. 4) (MDA-MB-468 cells [1]): strong decline in RNA levels; cell viability after storage, in words (MDA-MB-468 cells [2]): negatively affected; cell growth in culture of cells isolated from stored blood (FIG. 5) (MDA-MB-468 cells [3]): not culturable anymore |
| COC1=C(OC)C(=O)C(CCCCCCCCCC[P+](c2ccccc2)(c2ccccc2)c2ccccc2)=C(C)C1=O [MitoQ, (10-(2,5-dihydroxy-3,4-dimethoxy-6-methylphenyl)decyl) triphenylphosphonium and (10-(4,5-dimethoxy-2-methyl-3,6-dioxocyclohexa-1,4-dienyl)decyl) triphenylphosphonium] | Particular positive effects |  |
| Cl.NCCc1ccc(S(=O)(=O)F)cc1 [Pefabloc SC, 4-(2-aminoethyl) benzenesulfonyl fluoride hydrochloride] | higher signals than the control sample without additive |  |
| CC(C)(C)C(=O)Oc1ccc(S(=O)(=O)Nc2ccccc2C(=O)NCC(=O)O)cc1 [Sivelestat] | higher signals than the control sample without additive |  |
| CC1=C(C)C(=O)C(CCCCCCCCCC[P+](c2ccccc2)(c2ccccc2)c2ccccc2)=CC1=O [SkQ1, 10-(6′-plastoquinonyl) decyltriphenylphosphonium] | Particular positive effects |  |
| N[C@@H](CCC(=O)N[C@@H](CS)C(=O)NCC(=O)O)C(=O)O [glutathione] | further positive effect |  |
